Experiments:
AVEFA [1] = test: Pre-emergence herbicidal action against AVEFA; type: in vivo, Avena fatua; conditions: 320 g/ha, scored visually after 3 weeks vs untreated controls
Procedure, shortened: (§1)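 Scoring is visual, 3 weeks post-application, on a 0 to 100% scale relative to untreated controls (100% = plants died). Treatment is pre-emergence: aqueous suspensions or emulsions applied to the covering soil at 600 to 800 L/ha with 0.2% wetting agent.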

AMARE = test: Pre-emergence herbicidal action against AMARE; type: in vivo, Amaranthus retroflexus; conditions: 320 g/ha
Procedure, shortened: as §1

ALOMY [2] = test: Pre-emergence herbicidal action against ALOMY; type: in vivo, Alopecurus myosuroides; conditions: 320 g/ha, scored visually after 3 weeks vs untreated controls
Procedure, shortened: as §1

AVEFA [3] = test: Post-emergence herbicidal action against AVEFA; type: in vivo, Avena fatua; conditions: 80 g/ha, visual assessment after about 3 weeks
Procedure, shortened: (§2)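 Weeds were grown in sandy loam in a greenhouse and treated at the one-leaf stage, 2 to 3 weeks after sowing. WP or EC formulations were sprayed onto green parts at 600 to 800 l/ha water with 0.2% wetting agent. Visual % action versus untreated controls was scored after about 3 weeks.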

ALOMY [4] = test: Post-emergence herbicidal action against ALOMY; type: in vivo, Alopecurus myosuroides; conditions: 80 g/ha, visual assessment after about 3 weeks
Procedure, shortened: as §2

DIGSA [5] = test: Pre-emergence herbicidal action against DIGSA; type: in vivo, Digitaria sanguinalis; conditions: 320 g/ha, scored visually after 3 weeks vs untreated controls
Procedure, shortened: as §1

LOLRI [6] = test: Post-emergence herbicidal action against LOLRI; type: in vivo, Lolium rigidum; conditions: 80 g/ha, visual assessment about 3 weeks after treatment vs untreated controls
Procedure, shortened: as §2

LOLRI [7] = test: Pre-emergence herbicidal action against LOLRI (Table 8, titled post-emergence at 320 g/ha); type: in vivo, Lolium rigidum; conditions: table stands in the pre-emergence section
Procedure, shortened: as §1

ECHCG [8] = test: Pre-emergence herbicidal action against ECHCG; type: in vivo, Echinochloa crus-galli; conditions: 320 g/ha, scored visually after 3 weeks vs untreated controls
Procedure, shortened: as §1

DIGSA [9] = test: Post-emergence herbicidal action against DIGSA; type: in vivo, Digitaria sanguinalis; conditions: 80 g/ha, visual assessment about 3 weeks after treatment vs untreated controls
Procedure, shortened: as §2

MATIN = test: Pre-emergence herbicidal action against MATIN; type: in vivo; conditions: 320 g/ha
Source text: (§3) Seeds of monocotyledonous and dicotyledonous weed plants and crop plants are laid out in sandy loam soil in wood-fiber pots and covered with soil. The compounds of the invention, formulated in the form of wettable powders (WP) or as emulsion concentrates (EC), are then applied to the surface of the covering soil as aqueous suspension or emulsion at a water application rate equating to 600 to 800 L/ha with addition of 0.2% wetting agent.
(§4) After the treatment, the pots are placed in a greenhouse and kept under good growth conditions for the trial plants. The damage to the test plants is scored visually after a test period of 3 weeks by comparison with untreated controls (herbicidal activity in percent (%): 100% activity=the plants have died, 0% activity=like control plants).

SETVI [10] = test: Post-emergence herbicidal action against SETVI; type: in vivo, Setaria viridis; conditions: 80 g/ha, visual assessment about 3 weeks after treatment vs untreated controls
Procedure, shortened: as §2

SETVI [11] = test: Pre-emergence herbicidal action against SETVI; type: in vivo, Setaria viridis; conditions: 320 g/ha, scored visually after 3 weeks vs untreated controls
Procedure, shortened: as §1

ECHCG [12] = test: Post-emergence herbicidal action against ECHCG; type: in vivo, Echinochloa crus-galli; conditions: 80 g/ha, visual assessment about 3 weeks after treatment vs untreated controls
Procedure, shortened: as §2

VERPE = test: Pre-emergence herbicidal action against VERPE; type: in vivo, Veronica persica; conditions: 320 g/ha
Source text: as §3, §4

ABUTH = test: Post-emergence herbicidal action against ABUTH; type: in vivo, Abutylon threophrasti; conditions: 80 g/ha, visual assessment about 3 weeks after treatment vs untreated controls
Protocol: Seeds of monocotyledonous and dicotyledonous weed and crop plants are laid out in sandy loam soil in wood-fiber pots, covered with soil and cultivated in a greenhouse under good growth conditions. 2 to 3 weeks after sowing, the test plants are treated at the one-leaf stage. The compounds of the invention, formulated in the form of wettable powders (WP) or as emulsion concentrates (EC), are then sprayed onto the green parts of the plants as aqueous suspension or emulsion at a water application rate equating to 600 to 800 l/ha with addition of 0.2% wetting agent. After the test plants have been left to stand in the greenhouse under optimal growth conditions for about 3 weeks, the action of the preparations is assessed visually in comparison to untreated controls (herbicidal action in percent (%): 100% activity=the plants have died, 0% activity=like control plants).

VIOTR = test: Pre-emergence herbicidal action against VIOTR; type: in vivo, Viola tricolor; conditions: 320 g/ha
Procedure, shortened: as §1

SMILES | Pre-emergence action against AVEFA in % (AVEFA [1]) [%] | Pre-emergence action against AMARE in % (AMARE) [%] | Pre-emergence action against ALOMY in % (ALOMY [2]) [%] | Post-emergence action against AVEFA in % (AVEFA [3]) [%] | Post-emergence action against ALOMY in % (ALOMY [4]) [%] | Pre-emergence action against DIGSA in % (DIGSA [5]) [%] | Post-emergence action against LOLRI in % (LOLRI [6]) [%] | Pre-emergence herbicidal action against LOLRI in % (LOLRI [7]) [%] | Pre-emergence action against ECHCG in % (ECHCG [8]) [%] | Post-emergence action against DIGSA in % (DIGSA [9]) [%] | Pre-emergence action against MATIN in % (MATIN) [%] | Post-emergence action against SETVI in % (SETVI [10]) [%] | Pre-emergence action against SETVI in % (SETVI [11]) [%] | Post-emergence action against ECHCG in % (ECHCG [12]) [%] | Pre-emergence action against VERPE in % (VERPE) [%] | Post-emergence action against ABUTH in % (ABUTH) [%] | Pre-emergence action against VIOTR in % (VIOTR) [%]
C#CCOCC1CCC2(C1)NC(=O)C(c1c(C)cc(C#CC)cc1OC)=C2OC(=O)OCC (stereo not drawn) [Example P-103] | 100 | 100 | 100 | 90 | 100 | 100 | 90 | 100 | 100 | 100 | 90 | 100 | 100 | 100 | 90 | – | –
CC#Cc1cc(Br)c(C2=C(OC(=O)C(C)C)C3(CCC(COCC)C3)NC2=O)c(OC)c1 (stereo not drawn) [Example P-23] | 100 | 90 | 100 | – | 100 | 100 | 90 | 100 | 100 | 100 | – | 100 | 100 | 100 | 90 | 80 | 100
CC#Cc1cc(C)c(C2=C(O)C3(CCC(COCC)C3)NC2=O)c(F)c1 (stereo not drawn) [Example I-35] | – | 90 | 100 | 80 | 100 | 100 | 100 | 100 | – | 100 | – | – | 100 | 100 | – | 80 | 100
CC#Cc1cc(C)c(C2=C(OC(=O)OCC)C3(CCC(COC)C3)NC2=O)c(OC)c1 (stereo not drawn) [Example P-55] | 80 | – | 100 | 100 | 100 | 100 | 100 | 100 | 100 | 100 | 90 | 100 | 100 | 100 | 80 | – | 100
CC#Cc1cc(Br)c(C2=C(OC(=O)OCC)C3(CCC(COCC)C3)NC2=O)c(OC)c1 (stereo not drawn) [Example P-01] | 100 | 100 | 100 | – | 100 | 100 | 100 | 100 | 100 | 100 | 80 | 100 | 100 | 100 | 100 | – | 100
